Data published in patent US7501430B2 (ArQule, Inc., priority 2006, dated 2009).

target: T1, mutant B-RAF (Homo sapiens, UniProt P15056, V600E); experiment: RAF biochemical assay (MEK-1 phosphorylation, anti-phospho MEK1/2 detection); details: @ 3 uM
T1 construct: purchased Upstate (Charlottesville, Va.)
Summary of the method: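 Detection is by ELISA: after a 30 min room-temperature reaction, plate-captured GST-MEK-1 is probed with anti-phospho MEK1/2, then an AP-tagged secondary antibody with fluorescent Attophos read-out.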

T1 sequence (P15056 whole entry V600E): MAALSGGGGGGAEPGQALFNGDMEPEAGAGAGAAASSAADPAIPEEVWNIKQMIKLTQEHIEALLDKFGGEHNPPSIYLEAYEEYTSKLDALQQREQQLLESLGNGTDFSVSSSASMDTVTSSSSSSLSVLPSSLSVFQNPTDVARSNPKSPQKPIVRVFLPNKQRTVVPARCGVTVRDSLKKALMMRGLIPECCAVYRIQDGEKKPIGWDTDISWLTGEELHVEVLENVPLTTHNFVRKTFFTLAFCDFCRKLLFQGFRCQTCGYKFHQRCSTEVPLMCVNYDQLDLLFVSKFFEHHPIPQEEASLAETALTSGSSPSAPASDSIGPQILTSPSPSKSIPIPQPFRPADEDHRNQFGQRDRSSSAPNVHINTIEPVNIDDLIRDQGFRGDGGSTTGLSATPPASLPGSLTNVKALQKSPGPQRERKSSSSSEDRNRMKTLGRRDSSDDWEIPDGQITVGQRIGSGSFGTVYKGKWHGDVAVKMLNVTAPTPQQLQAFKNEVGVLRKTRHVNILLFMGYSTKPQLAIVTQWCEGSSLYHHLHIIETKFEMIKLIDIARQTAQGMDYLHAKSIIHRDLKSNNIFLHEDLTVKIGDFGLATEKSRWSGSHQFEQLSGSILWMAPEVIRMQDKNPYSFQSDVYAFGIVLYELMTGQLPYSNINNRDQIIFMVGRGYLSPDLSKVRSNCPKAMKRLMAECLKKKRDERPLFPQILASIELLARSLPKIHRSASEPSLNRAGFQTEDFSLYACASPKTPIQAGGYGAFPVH

Row | inhibition at 3 µM [%] | Compound
1 | 52 | O=S(=O)(c1ccc(C(F)(F)F)cc1)N1CCC(Nc2nccc(-c3c(-c4ccc(F)cc4)nc4occn34)n2)CC1 [Example 239, 4-[6-(4-fluorophenyl)imidazo[2,1-b][1,3]oxazol-5-yl]-N-(1-{[4-(trifluoromethyl)phenyl]sulfonyl}piperidin-4-yl)pyrimidin-2-amine]

same assay, conditions: @ 10 uM; read-out: Mutant B-RAF % inhibition

Row | Compound | inhibition at 10 µM [%]
2 | CN(C)c1ccc(NC(=O)N2CCC(Nc3nccc(-c4c(-c5ccc(F)c(F)c5)nc5sccn45)n3)CC2)cc1 [Example 226, 4-({4-[6-(3,4-difluorophenyl)imidazo[2,1-b][1,3]thiazol-5-yl]pyrimidin-2-yl}amino)-N-[4-(dimethylamino)phenyl]piper-idine-1-carboxamide] | 61
3 | Cc1cn2c(-c3ccnc(NC4CCN(C(=O)Nc5ccc(N(C)C)cc5)CC4)n3)c(-c3ccc(F)cc3)nc2s1 [Example 225, N-[4-(dimethylamino)phenyl]-4-({4-[6-(4-fluorophenyl)-2-methylimidazo[2,1-b][1,3]thiazol-5-yl]pyrimidin-2-yl}amino)piperidine-1-carboxamide] | 38
4 | O=S(=O)(c1ccc(Cl)cc1)N1CC[C@@H](Nc2nccc(-c3c(-c4ccc(F)cc4)nc4sccn34)n2)C1 [Example 278, N-{(3R)-1-[(4-chlorophenyl)sulfonyl]pyrro-lidin-3-yl}-4-[6-(4-fluorophenyl)imidazo[2,1-b][1,3]thiazol-5-yl]pyrimidin-2-amine] | 10
5 | COc1cccc(-c2nc3sccn3c2-c2ccnc(NC3CCN(C(=O)Nc4ccc(N(C)C)cc4)CC3)n2)c1 [Example 216, N-[4-(dimethylamino)phenyl]-4-({4-[6-(3-methoxyphenyl)imidazo[2,1-b][1,3]thiazol-5-yl]pyrimidin-2-yl}amino)piperidine-1-carboxamide] | 58

Continued, values first:

Row | inhibition at 10 µM [%] | Compound
6 | 60 | CN(C)c1ccc(NC(=O)N2CCC[C@@H](Nc3nccc(-c4c(-c5ccc(F)cc5)nc5occn45)n3)C2)cc1 [Example 24, (3R)-N-[4-(dimethyl-amino)phenyl]-3-({4-[6-(4-fluorophenyl)imidazo[2,1-b][1,3]oxazol-5-yl]pyrimidin-2-yl}amino)piperidine-1-carboxamide]
7 | 47 | CC(=O)N1CCC(Nc2nccc(-c3c(-c4ccc(F)cc4Cl)nc4occn34)n2)CC1 [Example 305, N-(1-acetylpiperidin-4-yl)-4-[6-(2-chloro-4-fluorophenyl)imidazo[2,1-b][1,3]oxazol-5-yl]pyrimidin-2-amine]
8 | 45 | CN(C)c1ccc(C(=O)N2CCC(Nc3nccc(-c4c(-c5ccc(F)cc5)nc5occn45)n3)CC2)cc1 [Example 222, N-{1-[4-(dimethylamino)benzoyl]piperidin-4-yl}-4-[6-(4-fluorophenyl)imidazo[2,1-b][1,3]oxazol-5-yl]pyrimidin-2-amine]
9 | 56 | C[C@H](NC(=O)N1CCC(Nc2nccc(-c3c(-c4ccc(F)cc4)nc4occn34)n2)CC1)c1ccccc1 [Example 195, 4-({4-[6-(4-fluorophenyl)imidazo[2,1-b][1,3]oxazol-5-yl]pyrimidin-2-yl}amino)-N-[(1S)-1-phenylethyl]piperidine-1-carboxamide]
10 | 16 | O=C(NCCc1ccc(F)cc1)N1CCC[C@@H](Nc2nccc(-c3c(-c4ccc(F)cc4)nc4occn34)n2)C1 [Example 71, (3R)-N-[2-(4-fluorophenyl)ethyl]-3-({4-[6-(4-fluorophenyl)imidazo[2,1-b][1,3]oxazol-5-yl]pyrimidin-2-yl}amino)piperidine-1-carboxamide]

same assay, conditions: read-out: Mutant B-RAF IC50

Row | Compound | IC50 [nM]
11 | O=S(=O)(c1nnc[nH]1)N1CCC[C@@H](Nc2nccc(-c3c(-c4cccc(O)c4)nc4sccn34)n2)C1 [Example 381, 3-[5-(2-{[(3R)-1-(4H-1,2,4-tri-azol-3-ylsulfonyl)piperidin-3-yl]amino}pyrimidin-4-yl)imidazo[2,1-b][1,3]thiazol-6-yl]phenol] | 15
12 | O=S(=O)(c1ccc(Cl)cc1)N1CCC[C@@H](Nc2nccc(-c3c(-c4cccc(CO)c4)nc4sccn34)n2)C1 [Example 396, (3-{5-[2-({(3R)-1-[(4-chlorophenyl)sulfonyl]piperidin-3-yl}amino)pyrimidin-4-yl]imidazo[2,1-b][1,3]thiazol-6-yl}phenyl)methanol] | 1600
13 | O=[N+]([O-])c1ccccc1-c1nc2sccn2c1-c1ccnc(N[C@@H]2CCCN(S(=O)(=O)c3ccc(Cl)cc3)C2)n1 [Example 131, N-{(3R)-1-[(4-chlorophenyl)sulfonyl]piperidin-3-yl}-4-[6-(2-nitrophenyl)imidazo[2,1-b][1,3]thiazol-5-yl]pyrimidin-2-amine] | 25
14 | Cc1ccc(-c2nc3scc(C)n3c2-c2ccnc(NC3CCN(C(=O)Nc4ccc(N(C)C)cc4)CC3)n2)cc1 [Example 252, N-[4-(dimethylamino)phenyl]-4-({4-[3-methyl-6-(4-methylphenyl)imidazo[2,1-b][1,3]thiazol-5-yl]pyrimidin-2-yl}amino)piperidine-1-carboxamide] | > 3000
15 | OC[C@H](O)CN1CCC[C@@H](Nc2nccc(-c3c(-c4cccc(O)c4)nc4sccn34)n2)C1 [Example 148, (2R)-3-[(3R)-3-({4-[6-(3-hydroxyphenyl)imidazo[2,1-b][1,3]thiazol-5-yl]pyrimidin-2-yl}amino)piperidin-1-yl]propane-1,2-diol] | > 3000
16 | COc1cccc(-c2nc3sccn3c2-c2ccnc(N[C@@H]3CCCN(C(=O)Nc4ccc(F)cc4)C3)n2)c1 [Example 327, (3R)-N-(4-fluorophenyl)-3-({4-[6-(3-methoxyphenyl)imidazo[2,1-b][1,3]thiazol-5-yl]pyrimidin-2-yl}amino)piperidine-1-carboxamide] | 4000
17 | N#Cc1cccc(-c2nc3sccn3c2-c2ccnc(N[C@@H]3CCCN(S(=O)(=O)c4ccc(Cl)cc4)C3)n2)c1 [Example 126, 3-{5-[2-({(3R)-1-[(4-chlorophenyl)sulfonyl]piperidin-3-yl}amino)pyrimidin-4-yl]imidazo[2,1-b][1,3]thiazol-6-yl}benzonitrile] | 710
18 | NCC(=O)Nc1ccccc1-c1nc2sccn2c1-c1ccnc(N[C@@H]2CCCN(S(=O)(=O)c3ccc(Cl)cc3)C2)n1 [Example 141, N~1~-(2-{5-[2-({(3R)-1-[(4-chlorophenyl)sulfonyl]piperidin-3-yl}amino)pyrimidin-4-yl]imidazo[2,1-b][1,3]thiazol-6-yl}phenyl)glycinamide] | 814
19 | COc1cccc(-c2nc3sccn3c2-c2ccnc(N[C@@H]3CCCN(S(=O)(=O)c4ccc(C(=O)O)cc4)C3)n2)c1 [Example 119, 4-{[(3R)-3-({4-[6-(3-methoxyphenyl)imidazo(2,1-b][1,3]thiazol-5-yl]pyrimidin-2-yl}amino)piperidin-1-yl]sulfonyl}benzoic acid] | 92
20 | CC(=O)c1cccc(-c2nc3sccn3c2-c2ccnc(N[C@@H]3CCCN(S(=O)(=O)c4ccc(Cl)cc4)C3)n2)c1 [Example 384, 1-(3-{5-[2-({(3R)-1-[(4-chlorophenyl)sulfonyl]piperidin-3-yl)amino)pyrimidin-4-yl]imidazo[2,1-b][1,3]thiazol-6-yl}phenyl)ethanone] | 1300
21 | CCOC(=O)c1ccc(-c2nc3sccn3c2-c2ccnc(N[C@@H]3CCCN(S(=O)(=O)c4ccc(Cl)cc4)C3)n2)cc1 [Example 361, ethyl 4-{5-[2-({(3R)-1-[(4-chlorophenyl)sulfonyl]piperidin-3-yl}amino)pyrimidin-4-yl]imidazo[2,1-b][1,3]thiazol-6-yl}benzoate] | 3250

Further lines, results first:

Row | IC50 [nM] | Compound
22 | 408 | COc1cccc(S(=O)(=O)N2CCC(Nc3nccc(-c4c(-c5ccc(F)cc5)nc5occn45)n3)CC2)c1 [Example 231, 4-[6-(4-fluorophenyl)imidazo[2,1-b][1,3]oxazol-5-yl]-N-{1-[(3-methoxyphenyl)sulfonyl]piperidin-4-yl}pyrimidin-2-amine]
23 | 1980 | Cc1ccc(NC(=O)N2CCC(Nc3nccc(-c4c(-c5ccc(F)cc5)nc5occn45)n3)CC2)cc1 [Example 172, 4-({4-[6-(4-fluorophenyl)imidazo[2,1-b][1,3]oxazol-5-yl]pyrimidin-2-yl}amino)-N-(4-methylphenyl)piperidine-1-carboxamide]
24 | 670 | CNC(=O)N1CCC(Nc2nccc(-c3c(-c4cccc(O)c4)nc4sccn34)n2)CC1 [Example 352, 4-({4-[6-(3-hydroxyphenyl)imidazo[2,1-b][1,3]thiazol-5-yl]pyrimidin-2-yl}amino)-N-methylpiperidine-1-carboxamide]
25 | 576 | O=C(O)c1ccc(S(=O)(=O)N2CCC[C@@H](Nc3nccc(-c4c(-c5ccc(F)cc5)nc5occn45)n3)C2)cc1 [Example 59, 4-{[(3R)-3-({4-[6-(4-fluorophenyl)imidazo[2,1-b][1,3]oxazol-5-yl]pyrimidin-2-yl}amino)piperidin-1-yl]sulfonyl}benzoic acid]
26 | 1220 | CCNC(=O)N1CCC(Nc2nccc(-c3c(-c4ccc(F)c(F)c4)nc4sccn34)n2)CC1 [Example 218, 4-({4-[6-(3,4-difluorophenyl)imidazo[2,1-b][1,3]thiazol-5-yl]pyrimidin-2-yl}amino)-N-ethylpiperidine-1-carboxamide]
27 | 4000 | COc1cccc(-c2nc3sccn3c2-c2ccnc(NC3CCN(S(C)(=O)=O)CC3)n2)c1 [Example 326, 4-[6-(3-methoxyphenyl)imidazo[2,1-b][1,3]thiazol-5-yl]-N-[1-(methylsulfonyl)piperidin-4-yl]pyrimidin-2-amine]
28 | 981 | O=S(=O)(c1cc(Cl)cc(Cl)c1)N1CCC(Nc2nccc(-c3c(-c4ccc(F)cc4)nc4occn34)n2)CC1 [Example 205, N-{1-[(3,5-dichlorophenyl)sulfonyl]piperidin-4-yl}-4-[6-(4-fluorophenyl)imidazo[2,1-b][1,3]oxazol-5-yl]pyrimidin-2-amine]
29 | 82 | O=C(NCc1ccco1)N1CCC(Nc2nccc(-c3c(-c4ccc(F)cc4)nc4occn34)n2)CC1 [Example 176, 4-({4-[6-(4-fluorophenyl)imidazo[2,1-b][1,3]oxazol-5-yl]pyrimidin-2-yl}amino)-N-(2-furylmethyl)piperidine-1-carboxamide]
